According to PubChem BioAssay (NCI):
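Values below derive from 48-hour exposures of cells grown in 96-well plates, with endpoints linearly interpolated between the two concentrations bracketing the appropriate inhibition level. GI50 = concentration required for 50% inhibition of growth. TGI marks complete inhibition of growth.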 Where a SMILES comes first, the peptide text is derived from it. [ ]: non-standard residue; d: D form. The star is where a group is joined. Octanoyl = CCCCCCCC(=O)*; Aib = CC(C)(N)C(=O)O; tBu = CC(C)(C)*

What was measured:
Test in all cases: inhibition of tumour cell growth, NCI panel, 48 h
[1] = test system: HOP-62 NSCLC
[2] = test system: CCRF-CEM leukemia
[3] = test system: SF-295 CNS

Row | Compound | TGI [1] | TGI [2] | TGI [3] | GI50 [2]
1 | O=C1C=C(NCCc2cc(Br)c(O)c(Br)c2)C(=O)c2ncccc21 | 3.59 µM | 31.4 µM | 2.79 µM | –
2 | COC(=O)CCn1cnc2c(SC)ncnc21 | > 100 µM | > 100 µM | > 100 µM | –
3 | NC1=NNC2(C(N)=N1)c1ccccc1-c1ccccc12 | > 10 µM | – | > 10 µM | –
4 | N#CCCN(CCC#N)c1ccc(/C=C2\N=C(c3ccccc3)N(c3ccccn3)C2=O)cc1 | > 100 µM | > 100 µM | > 100 µM | –
5 | CCOC(=O)CCC(NC(=O)c1ccc(OCc2nc3ccccc3n3cccc23)cc1)C(=O)OCC (stereo not drawn) | > 100 µM | > 100 µM | > 100 µM | –
6 | CN(C1=NCCO1)c1cccc2c1CCCC2 | > 10 µM | 8.06 µM | > 10 µM | –
7 | N/N=C1/CCCc2nonc21 | > 100 µM | > 100 µM | > 100 µM | –
8 | CCOP(=O)(C=C=C(C)C)OCC | > 100 µM | – | > 100 µM | –
9 | COc1cc2c(c3c1c(=O)c1ccccc1n3C)C=CC1(CCCCC1)O2 | > 9.54 µM | > 10 µM | 4.7 µM | –
10 | CN(C)c1nc(NN)c2c(-c3ccccc3)c(-c3ccccc3)oc2n1 | – | > 100 µM | > 100 µM | –
11 | CCCCn1c2c(n(CCCC)c1=S)-c1c(n(CCCC)c(=S)n1CCCC)SSSS2 | 36.6 µM | > 100 µM | > 100 µM | –
12 | COc1ccc2oc(C(=O)N3CC(CCl)c4ccc([N+](=O)[O-])cc43)cc2c1 (stereo not drawn) | 31.5 µM | – | 69.6 µM | –
13 | Cc1ccc(S(=O)(=O)OC2C(C3COC(C)(C)O3)OC3OC(C)(C)OC32)cc1 (stereo not drawn) | > 100 µM | > 100 µM | > 100 µM | –
14 | COc1cccc(/C=C2\CCCCCC2=O)c1 | > 100 µM | – | > 100 µM | –
15 | CN(CCCCN(C)CCc1ccc(Cl)c(Cl)c1)CCCCN1CCCC1 | 3.74 µM | 0.39 µM | 3.54 µM | –
16 | O=C(NCCO)Nc1c(C(F)(F)F)cc(-c2ccccc2)[nH]c1=O | > 100 µM | > 100 µM | > 100 µM | –

Row | Compound | TGI [1] | TGI [2] | TGI [3] | GI50 [2]
17 | CN(C)c1ccc(/C=C(\NC(=O)c2ccccc2)C2NC(Cc3c[nH]c4ccccc34)C(=O)O2)cc1 (stereo not drawn) | > 100 µM | > 100 µM | > 100 µM | –
18 | S=C(S)N1CCN(c2ccc(Cl)c(Cl)c2)CC1 | > 100 µM | > 100 µM | > 100 µM | –
19 | CCOC(=O)NC(NC(C)CC)(C(F)(F)F)C(F)(F)F (stereo not drawn) | > 100 µM | > 100 µM | > 100 µM | –
20 | NS(=O)(=O)c1ccc(CNc2nc(-c3cccs3)nc3ccc(I)cc23)cc1 | 49.9 µM | 59.7 µM | 38 µM | 21.8 µM
21 | Cn1c(-c2ccc(/C=N\N3CCN(/N=C/c4ccc(-c5c[n+]6ccsc6n5C)cc4)CC3)cc2)c[n+]2ccsc12 | – | > 100 µM | > 100 µM | –
22 | CCCCCCCC(=O)NC(C)(C)C(=O)NC(COC(C)(C)C)C(=O)NC(CC(C)C)C(=O)NC(C)(C)C(=O)NC(COC(C)(C)C)C(=O)NC(COC(C)(C)C)C(=O)NC(CC(C)C)C(=O)NC(C)(C)C(=O)NC(COC(C)(C)C)C(=O)NC(C(=O)NC(CC(C)C)C(=O)OC)C(C)CC (stereo not drawn) (Octanoyl-[Aib]S(tBu)L[Aib]S(tBu)S(tBu)L[Aib]S(tBu)IL-OMe; configuration not given here) | > 25 µM | 11.9 µM | > 25 µM | –
23 | COc1ccc(/C=C/C(=O)N[C@@H]2C(=O)N3[C@@H]2SC(C)(C)[C@@H]3C(=O)O)cc1 | > 100 µM | > 100 µM | > 100 µM | –
24 | Oc1ccc(Cn2c(-c3ccc(O)c(O)c3)nc3ccccc32)cc1O | 38 µM | 32.8 µM | 68 µM | –
25 | CN(/N=C/C=N/N(C)C1=NCCCCN1)C1=NCCCCN1 | > 100 µM | > 100 µM | > 100 µM | –
26 | O=C(NC1=NC2C=CC([N+](=O)[O-])=CC2S1)C(=O)Nn1c(=S)[nH]c2ccccc2c1=O (stereo not drawn) | > 100 µM | > 100 µM | > 100 µM | –
27 | Cc1c2c(n(Cc3ccccn3)c1C)NN=C(C#N)S2(=O)=O | > 100 µM | – | > 100 µM | –
28 | CC(C)NC(=O)OCc1c(COC(=O)NC(C)C)n(C)c2c1ccc1ccccc12 | 16.2 µM | – | 17.2 µM | –
29 | CC(C)NCC(O)c1ccc(OCc2ccccc2)c(OCc2ccccc2)c1-c1ccccc1 (stereo not drawn) | 3.25 µM | – | 3.55 µM | –
30 | COc1ccc2c(c1)N=C1CSC(c3cc([N+](=O)[O-])ccc3Cl)N1C2 (stereo not drawn) | 97.2 µM | – | > 100 µM | –
31 | Oc1c(C2=N[C@H]3CCCC[C@@H]3N2)ccc2ccccc12 | > 80.6 µM | > 100 µM | – | –
